# Patent US9084770B2, “Modulation of insulin like growth factor I receptor expression in cancer” (Antisense Therapeutics, Ltd., priority 2008, dated 2015)
# System: human IGF-IR mRNA
# Experiment: Antisense inhibition of human IGF-IR mRNA levels by quantitative RT-PCR (Table 1)
# Type: cell-based
# Parameters: %INHIB (human IGF-IR mRNA levels): concentration or dose not given beside the values
# Conditions: as shown in Table 1
# Description: Treatment of A549 cell cultures with oligonucleotides targeting IGF-IR is as described in WO 2004/072284.
# Quantitation of IGF-IR mRNA levels was accomplished by RT-PCR using the ABI PRISM (trademark) 7600, 7700, or 7900 Sequence Detection System (PE-Applied Biosystems, Foster City, Calif.) according to manufacturer's instructions. This is a closed-tube, non-gel-based, fluorescence detection system which allows high-throughput quantitation of PCR products in real-time. As opposed to standard PCR in which amplification products are quantitated after the PCR is completed, products in real-time quantitative PCR are quantitated as they accumulate. This is accomplished by including in the PCR reaction an oligonucleotide probe that anneals specifically between the forward and reverse PCR primers, and contains two fluorescent dyes. A reporter dye (e.g., FAM or JOE, obtained from either PE-Applied Biosystems, Foster City, Calif., Operon Technologies Inc., Alameda, Calif. or Integrated DNA Technologies Inc., Coralville, Iowa) is attached to the 5′-end of the probe and a quencher dye (e.g., TAMRA, obtained from either PE-Applied Biosystems, Foster City, Calif., Operon Technologies Inc., Alameda, Calif. or Integrated DNA Technologies Inc., Coralville, Iowa) is attached to the 3′-end of the probe. When the probe and dyes are intact, reporter dye emission is quenched by the proximity of the 3′ quencher dye. During amplification, annealing of the probe to the target sequence creates a substrate that can be cleaved by the 5′-exonuclease activity of Taq polymerase. […] With each cycle, additional reporter dye molecules are cleaved from their respective probes, and the fluorescence intensity is monitored at regular intervals by laser optics built into the ABI PRISM (trademark) Sequence Detection System. In each assay, a series of parallel reactions containing serial dilutions of mRNA from untreated control samples generates a standard curve that is used to quantitate the percent inhibition after antisense oligonucleotide treatment of test samples.
# PCR reagents were obtained from Invitrogen Corporation, (Carlsbad, Calif.). RT-PCR reactions were carried out by adding 20 μL PCR cocktail (2.5×PCR buffer minus MgCl2, 6.6 mM MgCl2, 375 μM each of dATP, dCTP, […] and dGTP, 375 nM each of forward primer and reverse primer, 125 nM of probe, 4 Units RNAse inhibitor, 1.25 Units PLATINUM (registered trademark) Taq, 5 Units MuLV reverse transcriptase, and 2.5×ROX dye) to 96-well plates containing 30 μL total RNA solution (20-200 ng). The RT reaction was carried out by incubation for 30 minutes at 48° C. Following a 10 minute incubation at 95° C. to activate the PLATINUM (trademark) Taq, 40 cycles of a two-step PCR protocol were carried out: 95° C. for 15 seconds (denaturation) followed by 60° C. for 1.5 minutes (annealing/extension).
# Gene target quantities obtained by RT-PCR are normalized using either the expression level of GAPDH, a gene whose expression is constant, or by quantifying total RNA using RiboGreen (trademark) (Molecular Probes, Inc. Eugene, Oreg.). GAPDH expression is quantified by RT-PCR, by being run simultaneously with the target, multiplexing, or separately. Total RNA is quantified using RiboGreen (trademark) RNA quantification reagent (Molecular Probes, Inc. Eugene, Oreg.). Methods of RNA quantification by RiboGreen (trademark) are taught in Jones et al., 1998.
# Probes and primers to human IGF-IR were designed to hybridize to the IGF-IR nucleotide sequence, using published sequence information (GenBank accession number NM000875 (SEQ ID NO:76) or M69229 (SEQ ID NO:77) which is the 5′ untranslated of the IGF-IR gene sequence (see FIG. 6).
# In accordance with the present invention, a series of antisense compounds were designed to target different regions of the human IGF-IR mRNA or the 5′ untranslated region, using published sequences set forth in NM000875 (SEQ ID NO:77) and M69229 (SEQ ID NO:76). […]
row,Substance,inhibition of IGF-IR expression (lead compounds)
1,"175308 (antisense GTCGTCGGCCTCCATTTTCA; listed as DNA, chemistry not fully specified) [compound 175308]",demonstrated inhibition
2,"323744 (antisense CGTGGTTGCAGCTGTGGATA; listed as DNA, chemistry not fully specified) [compound 323744]",demonstrated inhibition
3,"323747 (antisense CCAGCTTCTCAGCCTCGTGG; listed as DNA, chemistry not fully specified) [compound 323747]",demonstrated inhibition
4,"175323 (antisense AATGAATGAGCGGCTCCCCC; listed as DNA, chemistry not fully specified) [compound 175323]",demonstrated inhibition
5,"323767 (antisense CCAGCGTGTCTCTCAAATGG; listed as DNA, chemistry not fully specified) [compound 323767]",demonstrated inhibition

# Same assay, conditions: quantitative RT-PCR; averages from 3 experiments
row,Substance,%INHIB (human IGF-IR mRNA levels) [%]
1,"175305 (antisense ATCCAGGACACACACAAAGC; listed as DNA, chemistry not fully specified) [compound 175305]",81
2,"323699 (antisense CTTCAGCTGCTGATAGTCGT; listed as DNA, chemistry not fully specified) [compound 323699]",74
3,"323768 (antisense GGAGTTTAAAGGACAGTGCC; listed as DNA, chemistry not fully specified) [compound 323768]",59
4,"175308 (antisense GTCGTCGGCCTCCATTTTCA; listed as DNA, chemistry not fully specified) [compound 175308]",94
5,"323759 (antisense ATTTTGACTGTGAAATCTTC; listed as DNA, chemistry not fully specified) [compound 323759]",13
6,"323740 (antisense CCACTCTGCTCTCAAAGAAA; listed as DNA, chemistry not fully specified) [compound 323740]",0
7,"323763 (antisense ATCCAAGGATCAGCAGGTCG; listed as DNA, chemistry not fully specified) [compound 323763]",69
8,"323709 (antisense CAATATCCTTGAGATTGGTC; listed as DNA, chemistry not fully specified) [compound 323709]",29
9,"323719 (antisense TGTTGATGGTGGTCTTCTCA; listed as DNA, chemistry not fully specified) [compound 323719]",66
10,"323729 (antisense ATGTTCCAGCTGTTGGAGCC; listed as DNA, chemistry not fully specified) [compound 323729]",72
11,"323744 (antisense CGTGGTTGCAGCTGTGGATA; listed as DNA, chemistry not fully specified) [compound 323744]",85
12,"323750 (antisense TTTAAAAAGATGGAGTTTTC; listed as DNA, chemistry not fully specified) [compound 323750]",8
13,"323761 (antisense TGTAGTAGAAGGAGACCTCC; listed as DNA, chemistry not fully specified) [compound 323761]",26
14,"323741 (antisense GTTATCCACTCTGCTCTCAA; listed as DNA, chemistry not fully specified) [compound 323741]",57
15,"175327 (antisense ACAAGTCTCAAACTCAGTCT; listed as DNA, chemistry not fully specified) [compound 175327]",61
16,"323728 (antisense TCCCACAGTTGCTGCAAGTT; listed as DNA, chemistry not fully specified) [compound 323728]",73
17,"175321 (antisense TCGGCCTCCATTTTCAAACC; listed as DNA, chemistry not fully specified) [compound 175321]",78
18,"323747 (antisense CCAGCTTCTCAGCCTCGTGG; listed as DNA, chemistry not fully specified) [compound 323747]",85
19,"175293 (antisense GTTAATGCTGGTAAACAAGA; listed as DNA, chemistry not fully specified) [compound 175293]",40

row,Substance,%INHIB (human IGF-IR mRNA levels) [%]
1,"175295 (antisense AACAAGAGCCCCAGCCTCGC; listed as DNA, chemistry not fully specified) [compound 175295]",76
2,"323730 (antisense CCACCATGTTCCAGCTGTTG; listed as DNA, chemistry not fully specified) [compound 323730]",78
3,"323718 (antisense ATGGTGGTCTTCTCACACAT; listed as DNA, chemistry not fully specified) [compound 323718]",69
4,"175296 (antisense ATGCTGGTAAACAAGAGCCC; listed as DNA, chemistry not fully specified) [compound 175296]",57
5,"323758 (antisense GAGACCGGAGATAACTTTTG; listed as DNA, chemistry not fully specified) [compound 323758]",29
6,"323701 (antisense TTGGAGATGAGCAGGATGTG; listed as DNA, chemistry not fully specified) [compound 323701]",65
7,"175309 (antisense GCAGAAACGCGGAGTCAAAA; listed as DNA, chemistry not fully specified) [compound 175309]",72
8,"175323 (antisense AATGAATGAGCGGCTCCCCC; listed as DNA, chemistry not fully specified) [compound 175323]",82
9,"175322 (antisense TCCGGGTCACAGGCGAGGCC; listed as DNA, chemistry not fully specified) [compound 175322]",67
10,"175318 (antisense GAAACGCGGAGTCAAAATGA; listed as DNA, chemistry not fully specified) [compound 175318]",68
11,"175325 (antisense AAGGTCACAGCCGAGGCGAG; listed as DNA, chemistry not fully specified) [compound 175325]",55
12,"323748 (antisense GCAGCCCAGCTTCTCAGCCT; listed as DNA, chemistry not fully specified) [compound 323748]",77
13,"175310 (antisense GCGGCGAGCTCCTTCCCAAA; listed as DNA, chemistry not fully specified) [compound 175310]",76
14,"323757 (antisense CGGAGATAACTTTTGAGATC; listed as DNA, chemistry not fully specified) [compound 323757]",35
15,"323708 (antisense TCCTTGAGATTGGTCATCTC; listed as DNA, chemistry not fully specified) [compound 323708]",41
16,"323732 (antisense GTGAGGGTCACAGCCTTGAC; listed as DNA, chemistry not fully specified) [compound 323732]",59
17,"175294 (antisense GAAGTCCGGGTCACAGGCGA; listed as DNA, chemistry not fully specified) [compound 175294]",77
18,"323767 (antisense CCAGCGTGTCTCTCAAATGG; listed as DNA, chemistry not fully specified) [compound 323767]",84
